Assays:
[1] = tested on: H295R cells; conditions: H295R cells (parental or unmodified); cited from earlier work
[2] = molecular target: T1, aromatase (CYP19) (Homo sapiens, UniProt P11511); conditions: cited from earlier work
T1 sequence (P11511 1-503): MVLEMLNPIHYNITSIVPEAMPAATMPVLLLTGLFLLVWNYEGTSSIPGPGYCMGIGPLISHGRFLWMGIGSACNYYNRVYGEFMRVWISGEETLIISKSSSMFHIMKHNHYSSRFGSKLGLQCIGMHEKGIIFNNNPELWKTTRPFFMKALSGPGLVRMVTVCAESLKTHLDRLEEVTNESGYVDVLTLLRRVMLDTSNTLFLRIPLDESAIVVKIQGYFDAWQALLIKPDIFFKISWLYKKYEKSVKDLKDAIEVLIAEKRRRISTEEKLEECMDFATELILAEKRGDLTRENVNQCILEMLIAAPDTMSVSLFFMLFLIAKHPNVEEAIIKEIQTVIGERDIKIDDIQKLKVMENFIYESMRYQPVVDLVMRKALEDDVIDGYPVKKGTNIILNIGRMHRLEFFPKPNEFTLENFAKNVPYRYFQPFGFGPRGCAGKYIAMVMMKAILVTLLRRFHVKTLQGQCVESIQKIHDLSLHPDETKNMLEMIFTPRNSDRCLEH

[3] = molecular target: T2, aromatase (Homo sapiens, UniProt P11511); conditions: human ovarian tumor cells (KGN); cited from earlier work
T2 construct: endogenous in cells; host or cells: KGN human ovarian tumor cells
T2 sequence (P11511 1-503): T1 sequence (P11511 1-503)

[4] = in vivo; cited from earlier work
[5] = cited from earlier work
[6] = tested on: ER; conditions: cited from earlier work
[7] = tested on: estrogen receptor; conditions: cited from earlier work
[8] = tested on: esterase; conditions: in vitro; cited from earlier work
[9] = tested on: H295R cells; test: Chemical exposure, steroid production in unaltered H295R cells; assay type: cell-based, human; conditions: 48 h
Description: (§1) For instrumental detection of steroids, culture medium samples were extracted by ethyl acetate/hexane (v/v, 50/50) followed by LC-MS/MS analysis. […] C-d4 was provided by Cambridge (Andover, Mass., USA), other labelled standards were provided by C/D/N Isotope (Pointe-Claire, Quebec, Canada). Test chemicals (e.g. test substances) were obtained from Sigma. […] For all other hormones, chromatography was performed using a nano-pure water and methanol. Sample extract was separated by a 100 mm×2.1 mm Thermo Scientific Betasil C18 column (5 μm pore size) and then analyzed by a triple quadrapole tandem mass spectrometer (Waters, USA). All data were acquired and processed with Analyst Software, Ver. 1.4.1 (ABI-Sciex).
(§2) Cells were exposed to model chemicals in 24-well cell culture plates (COSTAR, Bucks, UK). One ml of cell suspension was added to each well and cells cultured for 24 to 48 h. Cells were exposed to chemicals dissolved in dimethyl sulfoxide (DMSO; Sigma-Aldrich, St. Louis, Mo.). Forskolin (FOR) was obtained from Sigma Chemical Co. (St. Louis, Mo., USA) and Prochloraz (PRO) was purchased from Aldrich (St. Louis, Mo., USA). The culture medium was collected from each well after 48 h and stored at −80° C. until further measurement.

[10] = tested on: H295R/CYP21A2-KD cells; test: Chemical exposure, steroid production in H295R/CYP21A2-KD cells; assay type: cell-based, human
Description: as §1, §2

[11] = tested on: female rat primary granulosa cells; conditions: cited from earlier work

Row | Compound | Effect type: estradiol (E2) production [1] | Effect type: testosterone (T) production [1] | further results
1 | CCC1(c2ccc(N)cc2)CCC(=O)NC1=O (stereo not drawn) [Aminoglutethimide] | Medium to weak inhibitor of T and E2 | Medium to weak inhibitor of T and E2 | –
2 | CCNc1nc(Cl)nc(NC(C)C)n1 [Atrazine] | Weak inducer of E2 production. | – | Effect on aromatase (CYP19) activity in vitro [2]: Aromatase inducer in vitro
3 | CCCCNC(=O)n1c(NC(=O)OC)nc2ccccc21 [Benomyl] | inducer or negative for E2 production. | Weak inhibitor of T production; Weak | Effect on aromatase (CYP19) activity in vitro [2]: Aromatase inducer in vitro; Effect on aromatase activity [3]: Has been shown to induce aromatase
4 | CC(C)(c1ccc(O)cc1)c1ccc(O)cc1 [Bisphenol A] | inducer | inhibitor | Uterrotrophic assay result [4]: estradiol. Tested positive for ER; Effect on progesterone (synthesis) in vitro [5]: Some evidence that alters; ER binding in vitro [6]: estradiol. Tested positive for ER
5 | C#C[C@]1(O)CC[C@H]2[C@@H]3CCC4=Cc5oncc5C[C@]4(C)[C@H]3CC[C@@]21C [Danazol] | medium to strong inhibitor of estradiol. | Negative for effects on testosterone; | –
6 | CCCCC(CC)COC(=O)c1ccccc1C(=O)OCC(CC)CCCC (stereo not drawn) [Di (2-ethylhexyl) phthalate (DEHP), Di (2-ethylhexyl) phthalate] | inducer of estradiol in H295R cells. | – | –
7 | CNC(=O)CSP(=S)(OC)OC [Dimethoate] | increases testosterone and estradiol | increases testosterone and estradiol | Effect on aromatase (CYP19) activity in vitro [2]: not affect aromatase activity in vitro;; Effect on progesterone (synthesis) in vitro [5]: Has been shown to decrease
8 | OC(c1ccc(Cl)cc1)(c1cncnc1)c1ccccc1Cl (stereo not drawn) [Fenarimol] | not as unequivocal; weak inhibitor of | – | –
9 | CC(C)(C)NC(=O)[C@H]1CC[C@H]2[C@@H]3CC[C@H]4NC(=O)C=C[C@]4(C)[C@H]3CC[C@]12C [Finasteride] | negative for effects on estradiol. | Weak inhibitor of testosterone; | –
10 | O=c1c(-c2ccc(O)cc2)coc2cc(O)cc(O)c12 [Genistein] | Medium inducer of E2 and weak | inhibitor of T production. Weak | Estrogen receptor agonism [7]: estrogen receptor agonist
11 | CC(=O)N1CCN(c2ccc(OCC3COC(Cn4ccnc4)(c4ccc(Cl)cc4Cl)O3)cc2)CC1 (stereo not drawn) [Ketoconazole] | Medium to weak inhibitor of E2 | Strong inhibitor of T production; | Effect type: progesterone production [1]: production; Induces progesterone
12 | N#Cc1ccc(C(c2ccc(C#N)cc2)n2cncn2)cc1 [Letrozole] | Strong inhibitor of E2 production. | Weak inhibitor of T production. | –
13 | CCSC(=O)N1CCCCCC1 [Molinate] | – | negative/weak inhibitor of T | Inhibition of esterase activity [8]: vitro, molinate is a poor
14 | CCCCOC(=O)c1ccc(O)cc1 [Paraben (Butyl paraben), Butyl paraben] | Weak inducer of E2, and weak | inhibitor of T production. | –
15 | CCCN(CCOc1c(Cl)cc(Cl)cc1Cl)C(=O)n1ccnc1 [Prochloraz] | Strong inhibitor of T and E2 | Strong inhibitor of T and E2 | Effect on production of E1 [9]: inhibited; Effect on production of E2 [9]: inhibited; Effect on production of T [9]: inhibited; Effect on progesterone production ([9]; 0.1 μM to 10 μM, dose-dependent): increased; Effect on progesterone production [10]: increased; Effect on production of E1 ([10]; H295R/CYP21A2-KD, 48 h): inhibited; Effect on production of E2 ([10]; H295R/CYP21A2-KD, 48 h): inhibited; Effect on production of T ([10]; H295R/CYP21A2-KD, 48 h): inhibited
16 | COc1nc(NC(C)C)nc(NC(C)C)n1 [Prometon] | Weak inducer of E2 production; | Negative for T. | –
17 | CC#C[C@]1(O)CC[C@H]2[C@@H]3CCC4=CC(=O)CCC4=C3[C@@H](c3ccc(N(C)C)cc3)C[C@@]21C [RU-486/mifepristone, mifepristone] | medium to strong inducer of estradiol. | Negative for effects on testosterone; | ER result (mode of action) [7]: Negative for ER very
18 | C[C@]12CC[C@H]3[C@@H](CC[C@@]45O[C@@H]4C(O)=C(C#N)C[C@]35C)[C@@H]1CC[C@@H]2O [Trilostane] | Strong inducer of T and E2 | Strong inducer of T and E2 | –
19 | C=CC1(C)OC(=O)N(c2cc(Cl)cc(Cl)c2)C1=O (stereo not drawn) [Vinclozolin] | Weak inducer of and moderate | inhibitor of T production. | –
20 | CCCCC(CC)COC(=O)c1ccccc1C(=O)O (stereo not drawn) [monoethylhexyl phthalate (MEHP), monoethylhexyl phthalate] | – | – | Effect on estradiol production [11]: (MEHP) has been shown to suppress
21 | Nonoxynol-9 | Negative for effects on testosterone | Negative for effects on testosterone | –
